Earlier results in US9498464B2, “Treatment of arterial wall by combination of RAAS inhibitor and HMG-CoA reductase inhibitor” (ARTSKIN d.o.o., priority 2011, dated 2016).

System: arterial stiffness
Conditions: 12 weeks, 80 mg then 160 mg/day, patients with type 2 diabetes and hypertension

CCCCC(=O)N(Cc1ccc(-c2ccccc2-c2nnn[nH]2)cc1)[C@H](C(=O)O)C(C)C [valsartan]
arterial stiffness (pulse wave analysis): improves arterial stiffness
